Literature values, collected in US20250041246A1, “METHODS AND COMPOSITIONS FOR TREATING VITILIGO” (THE REGENTS OF THE UNIVERSITY OF CALIFORNIA, priority 2021, published 2025).

Columns and labels:
[1] = system: hyperpigmentary disorders; details: in hyperpigmentary disorders
[2] = system: existing melanosomes (in melanocytes); details: due to its effect on existing melanosomes (in melanocytes)

SMILES	effect on skin pigmentation [1]	effect on skin pigmentation [2]
CN(C)C(=N)N=C(N)N [metformin]	lighten skin	–
[H]/N=C(/N)N/C(=N/[H])NCCc1ccccc1 [phenformin]	–	skin darkening effect
